Measurements taken from ChEMBL document CHEMBL3885881, “DrugMatrix”.

Organism: Rattus norvegicus
Test: DrugMatrix - Regimen: Daily Repeat
Format: toxicity, organism-based, Sprague-Dawley
Design: regimen Daily Repeat, gender Male, age 6-8 weeks
Settings: in vivo, po, route oral GAVAGE, […]; for TOTAL PROTEIN / URIC ACID / ALANINE AMINOTRANSFERASE / ALBUMIN / ALKALINE PHOSPHATASE / ASPARTATE AMINOTRANSFERASE / BLOOD UREA NITROGEN / CARBON DIOXIDE / CHOLESTEROL / CREATINE PHOSPHOKINASE / CREATININE / GLUCOSE / LACTATE DEHYDROGENASE / LIPASE / TOTAL BILIRUBIN: tissue Plasma; for ABSOLUTE BASOPHIL / ABSOLUTE EOSINOPHIL / ABSOLUTE LYMPHOCYTE / ABSOLUTE MONOCYTE / ABSOLUTE SEGMENTED NEUTROPHIL / BASOPHIL / EOSINOPHIL / ERYTHROCYTE COUNT / HEMATOCRIT / HEMOGLOBIN / LEUKOCYTE COUNT / LYMPHOCYTE / MEAN CORPUSCULAR HEMOGLOBIN / MEAN CORPUSCULAR HEMOGLOBIN CONCENTRATION / MEAN CORPUSCULAR VOLUME / MONOCYTE / NEUTROPHIL / NUCLEATED RED BLOOD CELLS / PLATELET COUNT: tissue Blood
[1] = 32 mg/kg, 120 h, dose level M2, time 5 day
[2] = 64 mg/kg, 72 h, dose level High, time 3 day
[3] = 64 mg/kg, 120 h, dose level High, time 5 day
[4] = 72 h, dose 2.5 mg/Kg, dose level Low, time 3 day
[5] = 120 h, dose 2.5 mg/Kg, dose level Low, time 5 day

## CC/C(=C(\c1ccccc1)c1ccc(OCCN(C)C)cc1)c1ccccc1 [TAMOXIFEN]
[1]
  TOTAL PROTEIN: 6.4 G/DL
  URIC ACID: 2.17 mg/dL
[2]
  ABSOLUTE BASOPHIL: 0 CELLS/uL
  ABSOLUTE EOSINOPHIL: 0 CELLS/uL
  ABSOLUTE LYMPHOCYTE: 5492.33 CELLS/uL
  ABSOLUTE MONOCYTE: 14 CELLS/uL
  ABSOLUTE SEGMENTED NEUTROPHIL: 260.33 CELLS/uL
  BASOPHIL: 0%
  EOSINOPHIL: 0%
  ERYTHROCYTE COUNT: 5.73 x10E6/uL
  HEMATOCRIT: 35.43%
  HEMOGLOBIN: 13.57 G/DL
  LEUKOCYTE COUNT: 5.77 x10E3/uL
  LYMPHOCYTE: 94.67%
  MEAN CORPUSCULAR HEMOGLOBIN: 23.73 pg
  MEAN CORPUSCULAR HEMOGLOBIN CONCENTRATION: 38.3 G/DL
  MEAN CORPUSCULAR VOLUME: 62.03 fL
  MONOCYTE: 0.33%
  NEUTROPHIL: 5%
  NUCLEATED RED BLOOD CELLS: 0 /100WBC
  PLATELET COUNT: 879.67 x10E3/uL
  ALANINE AMINOTRANSFERASE: 151 u/L
  ALBUMIN: 3.87 G/DL
  ALKALINE PHOSPHATASE: 492 u/L
  ASPARTATE AMINOTRANSFERASE: 96.67 u/L
  BLOOD UREA NITROGEN: 10 mg/dL
  CARBON DIOXIDE: 30.33 mmol/L
  CHOLESTEROL: 38.33 mg/dL
  CREATINE PHOSPHOKINASE: 356.33 u/L
  CREATININE: 0.11 mg/dL
  GLUCOSE: 148 mg/dL
  LACTATE DEHYDROGENASE: 98 u/L
  LIPASE: 10.67 u/L
  TOTAL BILIRUBIN: 0.1 mg/dL
  TOTAL PROTEIN: 5.77 G/DL
  URIC ACID: 0.43 mg/dL
[3]
  ABSOLUTE BASOPHIL: 0 CELLS/uL
  ABSOLUTE EOSINOPHIL: 0 CELLS/uL
  ABSOLUTE LYMPHOCYTE: 6999 CELLS/uL
  ABSOLUTE MONOCYTE: 72.33 CELLS/uL
  ABSOLUTE SEGMENTED NEUTROPHIL: 495.33 CELLS/uL
  BASOPHIL: 0%
  EOSINOPHIL: 0%
  ERYTHROCYTE COUNT: 6.14 x10E6/uL
  HEMATOCRIT: 38.5%
  HEMOGLOBIN: 14.9 G/DL
  LEUKOCYTE COUNT: 7.57 x10E3/uL
  LYMPHOCYTE: 92.33%
  MEAN CORPUSCULAR HEMOGLOBIN: 24.27 pg
  MEAN CORPUSCULAR HEMOGLOBIN CONCENTRATION: 38.7 G/DL
  MEAN CORPUSCULAR VOLUME: 62.63 fL
  MONOCYTE: 1%
  NEUTROPHIL: 6.67%
  NUCLEATED RED BLOOD CELLS: 0.33 /100WBC
  PLATELET COUNT: 1000.33 x10E3/uL
  ALANINE AMINOTRANSFERASE: 226.33 u/L
  ALBUMIN: 3.63 G/DL
  ALKALINE PHOSPHATASE: 346.67 u/L
  ASPARTATE AMINOTRANSFERASE: 140 u/L
  BLOOD UREA NITROGEN: 7.67 mg/dL
  CARBON DIOXIDE: 30 mmol/L
  CHOLESTEROL: 43.33 mg/dL
  CREATINE PHOSPHOKINASE: 593 u/L
  CREATININE: 0.12 mg/dL
  GLUCOSE: 136.33 mg/dL
  LACTATE DEHYDROGENASE: 145.33 u/L
  LIPASE: 10.33 u/L
  TOTAL BILIRUBIN: 0.1 mg/dL
  TOTAL PROTEIN: 5.3 G/DL
  URIC ACID: 0.67 mg/dL
[4]
  ABSOLUTE BASOPHIL: 0 CELLS/uL
  ABSOLUTE EOSINOPHIL: 0 CELLS/uL
  ABSOLUTE LYMPHOCYTE: 5987.33 CELLS/uL
  ABSOLUTE MONOCYTE: 0 CELLS/uL
  ABSOLUTE SEGMENTED NEUTROPHIL: 346 CELLS/uL
  BASOPHIL: 0%
  EOSINOPHIL: 0%
  ERYTHROCYTE COUNT: 5.38 x10E6/uL
  HEMATOCRIT: 32.47%
  HEMOGLOBIN: 12.63 G/DL
  LEUKOCYTE COUNT: 6.33 x10E3/uL
  LYMPHOCYTE: 94.33%
  MEAN CORPUSCULAR HEMOGLOBIN: 23.5 pg
  MEAN CORPUSCULAR HEMOGLOBIN CONCENTRATION: 38.9 G/DL
  MEAN CORPUSCULAR VOLUME: 60.4 fL
  MONOCYTE: 0%
  NEUTROPHIL: 5.67%
  NUCLEATED RED BLOOD CELLS: 0 /100WBC
  PLATELET COUNT: 919.67 x10E3/uL
  ALANINE AMINOTRANSFERASE: 63.33 u/L
  ALBUMIN: 3.8 G/DL
  ALKALINE PHOSPHATASE: 412.33 u/L
  ASPARTATE AMINOTRANSFERASE: 76.33 u/L
  BLOOD UREA NITROGEN: 11 mg/dL
  CARBON DIOXIDE: 34 mmol/L
  CHOLESTEROL: 44.33 mg/dL
  CREATINE PHOSPHOKINASE: 193 u/L
  CREATININE: 0.1 mg/dL
  GLUCOSE: 160.67 mg/dL
  LACTATE DEHYDROGENASE: 89 u/L
  LIPASE: 10 u/L
  TOTAL BILIRUBIN: 0.13 mg/dL
  TOTAL PROTEIN: 5.67 G/DL
  URIC ACID: 0.57 mg/dL
[5]
  ABSOLUTE BASOPHIL: 0 CELLS/uL
  ABSOLUTE EOSINOPHIL: 0 CELLS/uL
  ABSOLUTE LYMPHOCYTE: 7101.67 CELLS/uL
  ABSOLUTE MONOCYTE: 21.33 CELLS/uL
  ABSOLUTE SEGMENTED NEUTROPHIL: 443.67 CELLS/uL
  BASOPHIL: 0%
  EOSINOPHIL: 0%
  ERYTHROCYTE COUNT: 5.73 x10E6/uL
  HEMATOCRIT: 35.9%
  HEMOGLOBIN: 14 G/DL
  LEUKOCYTE COUNT: 7.57 x10E3/uL
  LYMPHOCYTE: 93.67%
  MEAN CORPUSCULAR HEMOGLOBIN: 24.43 pg
  MEAN CORPUSCULAR HEMOGLOBIN CONCENTRATION: 39.07 G/DL
  MEAN CORPUSCULAR VOLUME: 62.63 fL
  MONOCYTE: 0.33%
  NEUTROPHIL: 6%
  NUCLEATED RED BLOOD CELLS: 0.33 /100WBC
  PLATELET COUNT: 1179.33 x10E3/uL
  ALANINE AMINOTRANSFERASE: 95 u/L
  ALBUMIN: 4.13 G/DL
  ALKALINE PHOSPHATASE: 534.33 u/L
  ASPARTATE AMINOTRANSFERASE: 94.33 u/L
  BLOOD UREA NITROGEN: 11.33 mg/dL
  CARBON DIOXIDE: 31 mmol/L
  CHOLESTEROL: 43 mg/dL
  CREATINE PHOSPHOKINASE: 303.67 u/L
  CREATININE: 0.1 mg/dL
  GLUCOSE: 148.33 mg/dL
  LACTATE DEHYDROGENASE: 142.67 u/L
  LIPASE: 10.67 u/L
  TOTAL BILIRUBIN: 0.1 mg/dL
  TOTAL PROTEIN: 6 G/DL
  URIC ACID: 0.73 mg/dL
